Among the data in ChEMBL document CHEMBL1268924, “Design, solid-phase synthesis, and biological evaluation of novel 1,5-diarylpyrrole-3-carboxamides as carbonic anhydrase IX inhibitors” (Bioorg Med Chem, 2010) are Ki values, retold here.

SMILES strings stand for the structures. pKi: −log10 of the molar value.

One assay has as its target Carbonic anhydrase 9 (Homo sapiens, UniProt Q16790). Kind of assay: Inhibition of human carbonic anhydrase 9 by stopped flow CO2 hydration assay.
For a further assay, the target named is Carbonic anhydrase 1 (Homo sapiens, UniProt P00915). Kind of assay: Inhibition of human carbonic anhydrase 1 by stopped flow CO2 hydration assay.

Broadly, the pKi is −log10 of the Ki, conventionally taken in molar units. The low end stands for a high Ki, the high end for a low Ki.

Sequence of Carbonic anhydrase 1 (P00915 whole entry): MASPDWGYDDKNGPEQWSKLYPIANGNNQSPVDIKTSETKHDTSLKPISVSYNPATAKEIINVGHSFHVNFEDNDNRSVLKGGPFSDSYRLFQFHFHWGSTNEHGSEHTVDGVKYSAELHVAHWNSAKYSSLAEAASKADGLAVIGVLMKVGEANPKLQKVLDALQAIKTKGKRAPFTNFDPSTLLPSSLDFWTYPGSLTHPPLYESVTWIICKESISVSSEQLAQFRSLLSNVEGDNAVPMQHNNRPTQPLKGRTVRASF

With `Cc1c(C(=O)NCCN2CCN(C)CC2)cc(-c2ccc(-c3ccccc3)cc2)n1-c1ccc(S(N)(=O)=O)cc1`, the pKi at Carbonic anhydrase 9 was 6.68.
On the same count and under the same terms, then `Cc1c(C(=O)NCCN2CCOCC2)cc(-c2ccc(-c3ccccc3)cc2)n1-c1ccc(S(N)(=O)=O)cc1`, with 6.73; and `Cc1c(C(=O)NCCCN2CCOCC2)cc(-c2ccc(-c3ccccc3)cc2)n1-c1ccc(S(N)(=O)=O)cc1`, with 7.00; and `Cc1c(C(=O)NCCN(C)C)cc(-c2ccccc2)n1-c1ccc(S(N)(=O)=O)cc1`, with 6.62.
Still for that read-out and setting: the value for `Cc1c(C(=O)NCCCN(C)C)cc(-c2ccccc2)n1-c1ccc(S(N)(=O)=O)cc1` was 6.88.
In the case of `Cc1c(C(=O)N2CCN(C)CC2)cc(-c2ccccc2)n1-c1ccc(S(N)(=O)=O)cc1`, on Carbonic anhydrase 9, the pKi was 6.87.
Same read-out and setting: the value for `Cc1c(C(=O)NCCN2CCCCC2)cc(-c2ccccc2)n1-c1ccc(S(N)(=O)=O)cc1` was 7.05; that for `Cc1c(C(=O)NCCN2CCOCC2)cc(-c2ccccc2)n1-c1ccc(S(N)(=O)=O)cc1` was 6.70.
Same read-out and setting: the value for `Cc1c(C(=O)NCCN(C)C)cc(-c2ccc3ccccc3c2)n1-c1ccc(S(N)(=O)=O)cc1` was 8.00; that for `Cc1c(C(=O)NCCCN(C)C)cc(-c2ccc3ccccc3c2)n1-c1ccc(S(N)(=O)=O)cc1` was 7.96.
`Cc1c(C(=O)N2CCN(C)CC2)cc(-c2ccc3ccccc3c2)n1-c1ccc(S(N)(=O)=O)cc1`: at Carbonic anhydrase 1, the pKi is < 5.00.
For the molecule `Cc1c(C(=O)NCCN2CCCC2)cc(-c2ccc3ccccc3c2)n1-c1ccc(S(N)(=O)=O)cc1`, the pKi at Carbonic anhydrase 9 is 7.52.
Same read-out and setting: the value for `Cc1c(C(=O)NCCN2CCCCC2)cc(-c2ccc3ccccc3c2)n1-c1ccc(S(N)(=O)=O)cc1` was 6.90; that for `Cc1c(C(=O)NCCN2CCN(C)CC2)cc(-c2ccc3ccccc3c2)n1-c1ccc(S(N)(=O)=O)cc1` was 6.90; that for `Cc1c(C(=O)NCCCN2CCN(C)CC2)cc(-c2ccc3ccccc3c2)n1-c1ccc(S(N)(=O)=O)cc1` was 6.83.
Still for that read-out and setting: the value for `Cc1c(C(=O)NCCN2CCOCC2)cc(-c2ccc3ccccc3c2)n1-c1ccc(S(N)(=O)=O)cc1` was 7.66; that for `Cc1c(C(=O)NCCCN2CCOCC2)cc(-c2ccc3ccccc3c2)n1-c1ccc(S(N)(=O)=O)cc1` was 6.86.
Still for that read-out and setting: the value for `Cc1c(C(=O)NCCCN(C)C)cc(-c2ccc(-c3ccccc3)cc2)n1-c1ccc(S(N)(=O)=O)cc1` was 6.95.
Turning to `Cc1c(C(=O)N2CCN(C)CC2)cc(-c2ccc(-c3ccccc3)cc2)n1-c1ccc(S(N)(=O)=O)cc1`, the pKi on Carbonic anhydrase 9 is 7.17.
Same read-out and setting: then `Cc1c(C(=O)NCCN2CCCC2)cc(-c2ccc(-c3ccccc3)cc2)n1-c1ccc(S(N)(=O)=O)cc1`, with 6.82; and `Cc1c(C(=O)NCCN2CCCCC2)cc(-c2ccc(-c3ccccc3)cc2)n1-c1ccc(S(N)(=O)=O)cc1`, with 6.78.
The same measure, in the same setting: then `Cc1c(C(=O)NCCCN2CCN(C)CC2)cc(-c2ccc(-c3ccccc3)cc2)n1-c1ccc(S(N)(=O)=O)cc1`, with 6.70.
